Source: patent US20070191442A1, “Aqueous Pharmaceutical Formulations of ER-beta Selective Ligands” (priority 2006, published 2007)

What was measured:
Type in all cases: physicochemical
[1] = Solubility of Compound 1 formulated with HPBCD (FIG. 2, FIG. 3)
Text: FIG. 2 depicts the water solubility of the unionized form of Compound 1 with increasing concentrations of hydroxypropyl-beta-cyclodextrin (HPBCD). FIG. 3 depicts the water solubility of the ionized form of Compound 1 at pH 9.0 and 10.3 with increasing concentrations of hydroxypropyl-beta-cyclodextrin (HPBCD).

[2] = Serial dilution study with phosphate buffered saline as diluent and blood model; precipitate observed for two minutes
Description: A serial dilution study was also undertaken to assess the risk of Compound 1 precipitating upon injection. Phosphate buffered saline (PBS) was used as the diluent and blood model. Accordingly, 10 mg/mL (at pH 9.2) and 30 mg/mL (at pH 10.5) compositions of Compound 1 were prepared by the method described in Example 1, both having 15% HPBCD. The solutions were then serially diluted with PBS.

[3] = Water solubility of Compound 1 with increasing pH (FIG. 1)
Text: FIG. 1 depicts the water solubility of Compound 1 with increasing pH. The aqueous pharmaceutical compositions of the invention include a solubilizer/complexant component, to aid in solubilizing the ERβ selective ligand. […] Accordingly, present compositions include a solubilizer/complexant component to aid in solubilization. Generally, the solubilizer/complexant component consists of one or more solubilizing and/or complexing agents known to be useful in the preparation of pharmaceutical formulations. In some embodiments, the solubilizer/complexant component consists of a single solubilizing and/or complexing agent. In some embodiments, the solubilizer/complexant component includes, but is not limited to, cosolvents such as glycerine, ethanol, propylene glycol, sorbitol and polyethylene glycol, and surfactants such as the polyoxyethylene sorbitan fatty acid esters (e.g., polysorbate 80), polyoxyethylene castor oil derivatives (e.g., cremophor EL, cremophor RH40), vitamin E TPGS (d-alpha-tocopheryl polyethylene glycol), solutol (polyethylene glycol esters of hydroxystearate), polyoxyethylene-polyoxypropylene copolymers, polyoxyethylene fatty alcohol ethers, polyethoxylated fatty acid esters, polyoxyethylene-glycerol fatty esters, polyglycolized glycerides, polyethoxylated cholesterols, polyethoxylated sterols, and polyethoxylated vegetable oils. In some embodiments, the solubilizer/complexant component includes, but is not limited to, cosolvents such as glycerine, ethanol, propylene glycol, and polyethylene glycol, and surfactants such as the polyoxyethylene sorbitan fatty acid esters, polyoxyethylene castor oil derivatives, vitamin E TPGS, and solutol. […] Examples of some preferred solubilizing and/or complexing agents include cyclodextrins (including alpha, beta and gamma cyclodextrins) and substituted cyclodextrins, for example hydroxypropyl beta-cyclodextrin and sulfobutyl ether beta-cyclodextrin, with hydroxypropyl beta-cyclodextrin being preferred. […]

[4] = Chemical stability of a pharmaceutical composition of Compound 1 (potency, degradation impurities by HPLC); settings: for Potency (percent of the initial API concentration) / Impurity (MW not given) / Impurity MW 279 / Impurity MW 556 / Impurity MW 574: 15% HPBCD, pH 9.2; for Impurity (MW not given) / Impurity MW 279 / Impurity MW 556 / Impurity MW 574: HPLC
Description: As used herein, potency refers to the percent of the initial API concentration.
The potency of each composition was determined, and the concentration of impurities from degradation was measured by HPLC, as shown in Table 4.

increase in solubility ([1]; 15% HPBCD at pH 9, compared with free acid form at pH 6.3-7.6 formulated with 15% HPBCD): 10 fold
increase in solubility ([1]; 15% HPBCD at pH 10.3, compared with free acid form at pH 6.3-7.6 formulated with 15% HPBCD): 30 fold
Precipitate at 2 min. ([2]; 10 mg/mL (pH 9.2) composition, 15% HPBCD, diluted with PBS to 0.009766 mg/mL, pH 7.43): none
Precipitate at 2 min. ([2]; 10 mg/mL (pH 9.2) composition, 15% HPBCD, diluted with PBS to 0.019531 mg/mL, pH 7.45): none
Precipitate at 2 min. ([2]; 10 mg/mL (pH 9.2) composition, 15% HPBCD, diluted with PBS to 0.039063 mg/mL, pH 7.47): none
Precipitate at 2 min. ([2]; 10 mg/mL (pH 9.2) composition, 15% HPBCD, diluted with PBS to 0.078125 mg/mL, pH 7.57): none
Precipitate at 2 min. ([2]; 10 mg/mL (pH 9.2) composition, 15% HPBCD, diluted with PBS to 0.15625 mg/mL, pH 7.75): none
Precipitate at 2 min. ([2]; 10 mg/mL (pH 9.2) composition, 15% HPBCD, diluted with PBS to 0.3125 mg/mL, pH 8.01): none
Precipitate at 2 min. ([2]; 10 mg/mL (pH 9.2) composition, 15% HPBCD, diluted with PBS to 0.625 mg/mL, pH 8.36): none
Precipitate at 2 min. ([2]; 10 mg/mL (pH 9.2) composition, 15% HPBCD, diluted with PBS to 1.25 mg/mL, pH 8.65): none
Precipitate at 2 min. ([2]; 10 mg/mL (pH 9.2) composition, 15% HPBCD, diluted with PBS to 2.5 mg/mL, pH 8.83): none
Precipitate at 2 min. ([2]; 10 mg/mL (pH 9.2) composition, 15% HPBCD, diluted with PBS to 5 mg/mL, pH 9.04): none
Precipitate at 2 min. ([2]; 30 mg/mL (pH 10.5) composition, 15% HPBCD, diluted with PBS to 0.029297 mg/mL, pH 7.55): yes
Precipitate at 2 min. ([2]; 30 mg/mL (pH 10.5) composition, 15% HPBCD, diluted with PBS to 0.058594 mg/mL, pH 7.68): yes
Precipitate at 2 min. ([2]; 30 mg/mL (pH 10.5) composition, 15% HPBCD, diluted with PBS to 0.117188 mg/mL, pH 8): yes
Precipitate at 2 min. ([2]; 30 mg/mL (pH 10.5) composition, 15% HPBCD, diluted with PBS to 0.234375 mg/mL, pH 8.45): yes
Precipitate at 2 min. ([2]; 30 mg/mL (pH 10.5) composition, 15% HPBCD, diluted with PBS to 0.46875 mg/mL, pH 8.82): none
Precipitate at 2 min. ([2]; 30 mg/mL (pH 10.5) composition, 15% HPBCD, diluted with PBS to 0.9375 mg/mL, pH 9): none
Precipitate at 2 min. ([2]; 30 mg/mL (pH 10.5) composition, 15% HPBCD, diluted with PBS to 1.875 mg/mL, pH 9.32): none
Precipitate at 2 min. ([2]; 30 mg/mL (pH 10.5) composition, 15% HPBCD, diluted with PBS to 3.75 mg/mL, pH 9.6): none
Precipitate at 2 min. ([2]; 30 mg/mL (pH 10.5) composition, 15% HPBCD, diluted with PBS to 7.5 mg/mL, pH 9.9): none
Precipitate at 2 min. ([2]; 30 mg/mL (pH 10.5) composition, 15% HPBCD, diluted with PBS to 15 mg/mL, pH 10.17): none
solubility at the pH maxima considered safe for IV administration ([3]; about pH 10): poorly soluble
solubility at lower pH ([3]; lower pH): relatively insoluble
solubility in water ([3]; water): insoluble in water
Potency (percent of the initial API concentration) ([4]; stored 1 mo. at 25 °C): 100.8
Potency (percent of the initial API concentration) ([4]; stored 1 mo. at 40 °C): 100.4
Impurity (MW not given) ([4]; stored 1 mo. at 40 °C): 0.06
Impurity MW 279 ([4]; stored 1 mo. at 40 °C): 0.07
Impurity MW 556 ([4]; stored 1 mo. at 40 °C): 0.33
Impurity MW 574 ([4]; stored 1 mo. at 40 °C): 0.03
Potency (percent of the initial API concentration) ([4]; stored 3 mo. at 4 °C): 99.9
Potency (percent of the initial API concentration) ([4]; stored 3 mo. at 25 °C): 98.9
Impurity (MW not given) ([4]; stored 3 mo. at 25 °C): 0.02
Impurity MW 279 ([4]; stored 3 mo. at 25 °C): 0.03
Impurity MW 556 ([4]; stored 3 mo. at 25 °C): 0.11
Potency (percent of the initial API concentration) ([4]; stored 3 mo. at 40 °C): 98.1
Impurity (MW not given) ([4]; stored 3 mo. at 40 °C): 0.12
Impurity MW 279 ([4]; stored 3 mo. at 40 °C): 0.16
Impurity MW 556 ([4]; stored 3 mo. at 40 °C): 0.62
Impurity MW 574 ([4]; stored 3 mo. at 40 °C): 0.06
Potency (percent of the initial API concentration) ([4]; stored 6 mo. at 4 °C): 98.0
Impurity MW 556 ([4]; stored 6 mo. at 4 °C): 0.06
Potency (percent of the initial API concentration) ([4]; stored 6 mo. at 25 °C): 97.7
Impurity (MW not given) ([4]; stored 6 mo. at 25 °C): 0.04
Impurity MW 279 ([4]; stored 6 mo. at 25 °C): 0.05
Impurity MW 556 ([4]; stored 6 mo. at 25 °C): 0.36
Impurity MW 574 ([4]; stored 6 mo. at 25 °C): 0.03
Potency (percent of the initial API concentration) ([4]; stored 6 mo. at 40 °C): 93.3
Impurity (MW not given) ([4]; stored 6 mo. at 40 °C): 0.3
Impurity MW 279 ([4]; stored 6 mo. at 40 °C): 0.4
Impurity MW 556 ([4]; stored 6 mo. at 40 °C): 1.57
Impurity MW 574 ([4]; stored 6 mo. at 40 °C): 0.11
molecular weight 556 impurity ([4]; comparable formulation without the HPBCD (5 mg/mL, 50 mM glycine buffer, pH 11), at three days): 0.34%
SMILES: N#Cc1cc(-c2ccc(O)c(F)c2)cc2ccc(O)cc12 [Compound 1, 3-(3-Fluoro-4-hydroxy-phenyl)-7-hydroxy-naphthalene-1-carbonitrile]
concentration of Compound 1 on dilution relative to water solubility (FIG. 4) ([2]; 10 mg/mL and 30 mg/mL solutions, 15% HPBCD, serial dilution with PBS): maintained above the water solubility for sufficient time for complete dilution in the blood stream
tendency to precipitate upon dilution ([2]; 10 mg/mL solution versus 30 mg/mL solution, both 15% HPBCD, diluted with PBS): lower tendency to precipitate upon dilution
